This is an account of results in patent US20230390272A1 (PRILENIA NEUROTHERAPEUTICS LTD., priority 2020, published 2023).

For one assay, the target named is Sigma-1 Receptor (S1R) (Homo sapiens (Human), UniProt Q99720). Put plainly: In-vitro binding assay, Sigma-1 receptor. To be noted: for S1R fold selectivity (S2R/S1R): ratio S2R Ki/S1R Ki. The method, then:
(§1) In-vitro binding assays performed at Eurofins Panlabs Taiwan, Ltd. Specific ligand binding was determined in the presence of an excess of unlabelled ligand.

For another assay, the system named is B104 neuroblastoma cells. Put plainly: BDNF release from B104 cells, in-situ ELISA. Format: cell-based, rat. To be noted: 5 days, vs untreated control.
In another assay the target is Sigma-2 receptor (S2R) (Homo sapiens (Human), UniProt Q5BJF2). Put plainly: In-vitro binding assay, Sigma-2 receptor. To be noted: Cheng Prusoff equation. The method, then: as §1
The subject of assay [1] is YAC128 HD mice. The method, then: (§2) Animals. […] Mice were bred at the Biological Resource Centre (Agency for Science, Technology and Research, ASTAR), and group-housed with littermates of mixed genotype. Animals were maintained under a 12-h light cycle (lights on at 09:00) in a clean facility, and given free access to food and water. Experiments were performed with the approval of the Institutional Animal Care and Use Committee at the Biomedical Sciences Institute (ASTAR) and in accordance with their approved guidelines.
(§3) Animals were weighed every two weeks to ensure the correct dose was maintained.
(§4) Mice were divided into three groups. […] One cohort was behaviorally tested every two months commencing at 2 months of age. Mice were tested for psychiatric function (open field, elevated plus maze, and forced swim test). Tests were conducted at a set time during the day, prior to drug administration.

Assay [2] has as its system YAC128 HD mice. To be noted: early treatment from 1.5 months, 30 mg/kg. The method, then:
as §2, §3, §4
Anxiety-like behavioral tests. The open-field (OF) and elevated plus maze (EPM) tests are used to assess anxiety-like behavioral in rodents. The time spent in the center of the arena in the OF and the time spent in the open arms of the maze in the EPM are considered measures of anxiety-like behavior.

The test system of a further assay is Sprague-Dawley male rats. To be noted: FST day 8. The source says: On day 8, rats were again placed in a water tank, and time spent immobile measured.
Sprague-Dawley male rats, 6 weeks old were used. Rats were pre-tested on day 1 to ensure stable and high duration of immobility during the 5-min test session.

A further assay has as its system Male NMRI mice. To be noted: 30 min before test. The source says: Animals were assigned according to the experimental plan to one of the 4 test boxes run simultaneously.
The number of marbles covered by sawdust were counted. The experimenter also observed the animals for obvious inhibition of general activity (locomotor activity).

Another assay relates to HD patients. The settings on record: 45 mg bid. The source says:
PBA-S includes behavioral assessments of depressed mood, anxiety, apathy and irritability.
The lack of initiative subscale of the PBA-S is a measure of apathy in HD patients. Apathy is a symptom common to HD and depression.
The Problem Behaviors Assessment-Short (PBA-s) scale, is a measure of psychiatric symptoms including anxiety, depression and apathy. The PBA-s is an interview designed specifically for rating the severity and frequency of behavioral abnormalities in HD. PBA-S includes behavioral assessments of depressed mood, anxiety, apathy and irritability. This scale is widely used in HD clinical trials and recommended as a measure of screening behavioral symptoms, including depression and anxiety. […] The lack of initiative subscale of the PBA-S is a measure of apathy in HD patients. Apathy is a symptom common to HD and depression.

The subject of a further assay is Male Sprague-Dawley rats. To be noted: 30 mg/kg p.o., 30 min and 120 min after administration.
Assay [3] relates to rodents exhibiting symptoms of anxiety. The settings on record: periodic administration, paper example.
Assay [4] concerns patient diagnosed with anxiety or depression. To be noted: periodic administration, intravenous or oral, paper example.
For a further assay, the target named is D3Rs (Homo sapiens (Human), UniProt P35462). To be noted: cited from earlier work.
A further assay concerns the target D2Rs (Homo sapiens (Human), UniProt P14416). To be noted: cited from earlier work.

Several values for one entry are separate records, joined by “and”; a condition that tells them apart may be missing. Identical values can stand only once. Like-named read-outs stand apart in the source and are kept apart here.

Chain of Sigma-1 Receptor (S1R) (Q99720 whole entry, species assumed): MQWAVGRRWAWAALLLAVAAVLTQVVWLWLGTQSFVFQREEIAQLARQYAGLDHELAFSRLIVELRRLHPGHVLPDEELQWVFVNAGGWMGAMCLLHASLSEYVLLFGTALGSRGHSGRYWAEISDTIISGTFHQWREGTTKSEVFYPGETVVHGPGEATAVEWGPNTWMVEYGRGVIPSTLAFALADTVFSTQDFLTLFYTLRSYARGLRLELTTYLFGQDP
Chain of D3Rs (P35462 whole entry): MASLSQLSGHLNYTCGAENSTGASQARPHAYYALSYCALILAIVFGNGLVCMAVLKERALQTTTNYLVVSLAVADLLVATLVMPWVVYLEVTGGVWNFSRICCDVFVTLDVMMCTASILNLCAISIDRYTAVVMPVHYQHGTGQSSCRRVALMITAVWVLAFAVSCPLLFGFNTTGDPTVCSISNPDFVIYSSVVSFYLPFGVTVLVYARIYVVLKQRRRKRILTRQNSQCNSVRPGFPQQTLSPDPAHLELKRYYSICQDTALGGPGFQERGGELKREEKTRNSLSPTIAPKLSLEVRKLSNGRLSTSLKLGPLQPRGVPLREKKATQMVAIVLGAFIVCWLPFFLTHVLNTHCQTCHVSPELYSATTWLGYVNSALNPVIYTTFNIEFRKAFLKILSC
Chain of Sigma-2 receptor (S2R) (Q5BJF2 whole entry, species assumed): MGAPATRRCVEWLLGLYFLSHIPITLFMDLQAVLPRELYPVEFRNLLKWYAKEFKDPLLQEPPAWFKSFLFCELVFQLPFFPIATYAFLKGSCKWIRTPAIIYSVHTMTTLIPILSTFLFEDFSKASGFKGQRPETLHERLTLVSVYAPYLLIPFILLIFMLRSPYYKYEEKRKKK
Chain of D2Rs (P14416 whole entry): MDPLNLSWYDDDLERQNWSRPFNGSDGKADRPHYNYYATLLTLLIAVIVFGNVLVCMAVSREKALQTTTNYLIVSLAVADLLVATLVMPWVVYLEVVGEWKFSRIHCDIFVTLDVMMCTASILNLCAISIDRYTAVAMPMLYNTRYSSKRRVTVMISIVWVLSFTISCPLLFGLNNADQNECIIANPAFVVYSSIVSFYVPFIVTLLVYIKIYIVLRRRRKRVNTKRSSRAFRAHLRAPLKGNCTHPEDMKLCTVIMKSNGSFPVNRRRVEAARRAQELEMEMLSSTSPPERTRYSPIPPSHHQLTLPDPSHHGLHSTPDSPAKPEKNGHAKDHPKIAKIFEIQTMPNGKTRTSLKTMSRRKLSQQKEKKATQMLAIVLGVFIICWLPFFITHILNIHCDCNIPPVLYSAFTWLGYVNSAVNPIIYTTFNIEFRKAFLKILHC
Description for Male Sprague-Dawley rats: Male Sprague-Dawley rats (270-400 g bodyweight) were housed in groups of two in a temperature (20±2° C.) and humidity (50-60%) controlled colony room under a non-reversed 12 (6-18 on)/12 h light-dark cycle with food and water ad libitum except during the actual experiments. 4 rats were used for each drug dose and the vehicle-treated control group.
USV was recorded by a microphone and processed by an interface to select USV signals and to digitize the resulting signals for automatic processing. In the priming phase, each rat was placed in the test chamber. After a 2 min time period, a series of at most ten shocks (trials), 1.8 mA for 0.3 s, separated by 20 s shock-free intervals, was delivered via the grid floor of the test chamber. In the shock-free intervals the occurrence of ultrasonic vocalization (22±5 kHz) was automatically recorded, and the duration of ultrasonic vocalization was calculated immediately. The priming session was terminated either when the rat constantly vocalized at least for 10 s on three consecutive trials or after the tenth trial. Rats not responding with USV on three consecutive trials were excluded from the test. In the actual test performed on the next day, each rat received 5 initial shocks (1.8 mA for 0.3 s, separated by 20 s shock-free intervals) in the test chamber, and the duration of USV (22+4 kHz) was recorded during the following 3 min period.

Regarding `CCCN1CCC(O)(c2cccc(S(C)(=O)=O)c2)CC1` [Compound 1], the “S1R fold selectivity (S2R/S1R)” value on Sigma-1 Receptor (S1R) was >270 fold. Further, in the assay on B104 neuroblastoma cells (Compound 1 1 μM alone), the “increase in BDNF secretion” value came out at 12.5%.
Consider `CCCN1CC[C@@H](c2cccc(S(C)(=O)=O)c2)[C@@H](O)C1` [Compound 4], for which, at Sigma-1 Receptor (S1R), the “S1R fold selectivity (S2R/S1R)” value is >35 fold. Further, the “change in BDNF secretion” value in the assay on B104 neuroblastoma cells (Compound 4 0.001 μM alone) is reported as −1.5%.
In the case of `CCCN1CCC(c2cccc(S(C)(=O)=O)c2)CC1` [Pridopidine, 4-[3-(methylsulfonyl)phenyl]-1-propyl-piperidine], the Ki at Sigma-1 Receptor (S1R) (Cheng Prusoff equation) came to 57 nM; on Sigma-2 receptor (S2R), 5450 nM. The “increase in BDNF secretion” value in the assay with B104 neuroblastoma cells (pridopidine 0.001 μM alone) is 13.6% and 13.5%; with B104 neuroblastoma cells (pridopidine 0.005 μM alone) it was 26%; in the assay with B104 neuroblastoma cells (pridopidine 0.01 μM alone), 3.4%. In addition, the “time spent immobile in forced swim test” value in the assay on YAC128 HD mice [1] (early treatment from 1.5 months, 30 mg/kg, 12 months of age) is “reduced the time spent immobile”. In the assay on YAC128 HD mice [1] (late (manifest) treatment from 8 months, escalating to 30 mg/kg oral gavage), the “depressive-like behavior, immobility time in forced swim test” value was “significantly improves depressive-like phenotype”. Moreover, the “time spent in the center of the arena (open field)” value with YAC128 HD mice [2] (tested at 6 months) is given as “increased the time spent in the center of the arena”. In addition, in the assay with YAC128 HD mice [2] (tested at 8 months), the “time spent in the open arms (elevated plus maze)” value is “decreased anxiety-like behavior”. The “decrease in immobility time” value with Sprague-Dawley male rats (3 mg/kg oral gavage daily for 7 days) is reported as 38%; in the assay on Sprague-Dawley male rats (15 mg/kg oral gavage daily for 7 days), 58%. Also, the inhibition of marble-burying in the assay on Male NMRI mice (1 mg/kg p.o.) is 8%; with Male NMRI mice (3 mg/kg p.o.), 49%; with Male NMRI mice (10 mg/kg p.o.), 62%; in the assay with Male NMRI mice (30 mg/kg p.o.), 73%. Also, in the assay on HD patients (week 52, p=0.0603), the “PBA-S change from baseline vs placebo” value is recorded as −2.13 units. Besides, the “PBA-S lack of initiative measure, change from baseline vs placebo” value in the assay on HD patients (week 52, p=0.0704) was −1.27 units. Also, the “effect on USV duration” value with Male Sprague-Dawley rats was “significantly inhibited USV”. For the same compound, the “efficacy in treating anxiety” value in [3] is reported as “effective in treating anxiety”. In [4], the “efficacy in treating patient with anxiety or depression” value was “effective in treating the patient”. On D3Rs, the “higher affinity towards the S1R vs D3Rs” value is listed as ~30 fold. Further, the “higher affinity towards the S1R vs D2Rs” value on D2Rs is given as ~500 fold.
